Data: patent publication US7572436B1, “Thionin as an antineoplastic and immunostimulant” (priority 2000, dated 2009)
Values joined by “and” are separate entries in the source; they are usually repeats but may differ in a detail not shown here. Equal values may be shown once. Where no end group is shown, it is not given here.

Assays:
Balb C splenocytes = assay: Mitogen assay (^3H-thymidine uptake), murine splenocytes; format: cell-based; conditions: for CPM of tritiated thymidine incorporated: Balb C splenocytes
Description: (§1) Murine spleen cells or human peripheral blood lymphocytes (PBLS) were obtained aseptically as described herein for use in the mitogen assay. When murine splenocytes were used, they were first treated with red cell lysing buffer (0.17 M Tris, 0.144 NH4C1, pH 7.2), washed in RPMI-10 (standard RPMI growth medium, Sigma Chemical Co., St. Louis, Mo., supplemented with 10% fetal bovine serum) and viable cells counted using Trypan Blue exclusion. Human PBLs were isolated from blood using HISTOPAQUE™-1077, a solution of FICOLL™ and sodium diatrizoate (Sigma Chemical Co., St. Louis, Mo.), and subsequent washings with RPMI-5 (RPMI supplemented with 5% fetal bovine serum) to remove platelets. Isolated lymphocytes were resuspended in RPMI-10 and a viable cell yield determined by Trypan Blue exclusion.
(§2) Drugs and known mitogenic controls were added in triplicate to a 96-well flat bottom microplate aseptically. The culture medium was RPMI-10. Splenocytes or human-lymphocytes were added at a concentration of 3-4×10^5 cells/well, to a final volume of 200 μl/well. The assay plate was incubated at 37° C. in a 5% CO2 humidified incubator. At 48-50 hours, ^3H-thymidine was added (1 μCi/well), and the plate was harvested approximately 16-18 hours later.
(§3) Mitogen assay microplates were harvested using an Inotech plate harvester (Inotech Biosystems International, Inc., Rockville, Md.). Counts per minute (cpm) per well were measured using the Berthold-Inotech Trace 96-plate reader (Inotech AT, Wohlen, Switzerland) and/or a scintillation counter (Packard Tri-carb 2100TR, Packard Instrument Co., Meriden, Conn.). Mitogenic activity was directly determined by comparing cpm levels to controls.
(§4) To test whether PT stimulates mitogen activity, splenocytes were incubated for two days with IL-2 (50 units/ml) or KLH (20 μg/ml) in conjunction with PT in the concentrations shown. Figures represent the radioactivity counts of tritiated thymidine taken up during a subsequent 20-hour incubation period of cells incubated with tritiated thymidine in RPMI.

non-adherent human PBLs = assay: Mitogen assay (^3H-thymidine uptake), human PBLs; format: cell-based; conditions: PT 0.01 μg/ml
Description: as §1, §2, §3, §4

YAC-1 target cells = assay: Natural killer assay (^51Cr release), murine splenocytes against YAC-1; format: cell-based; conditions: for % Cell Lysis: Balb/C splenocytes, ^51Cr loaded YAC-1 cells
Experimental: (§5) Murine spleen cell and human peripheral blood lymphocytes (PBLs) were obtained as described in the procedure for the Mitogen Assay.
(§6) Drugs and control substances were added, using sterile techniques, to the wells of a 24-well plate, using RPMI-10 as the culture medium. Spleen cells or human lymphocytes were added last to the wells at a concentration of 4×10^6 cells per 2 ml total volume in the well. Splenocyte incubation was usually three days (65-70 hours) while human lymphocyte stimulation may be extended to four to five days. The cells were incubated at 37° C. in a humidified 5% CO2 incubator.
On the day of harvest, 10^7 target cells were labeled with 150 μCi of ^51Cr (sodium chromate). Target cells used were YAC-I (murine Lymphoma) or K562 (human chronic myelogenous leukemia).
The cells were adjusted to 2×10^7 cells/ml in RPMI-10 and 150 μCi of ^51Cr were added to 500 μl of the target cell suspension (10^7 total cells) and incubated in a 5% CO2 humidified incubator for 1.5 hours. The labeled cells were washed three times with 10 ml RPMI-10 and then resuspended in 5 ml (2×10^6 cells/ml). Supernatants from washings of labeled cells were isolated and contained under lead shielding.
The stimulated effector cells were thoroughly mixed and removed from individual wells of the 24-well plate and transferred to tubes for centrifugation at 200×g. The supernatants were decanted and the pelleted cells washed once with 2 ml RPMI-10. The cells were finally resuspended in a total volume of 500 μl at approximately 8×10^6 cells/ml in RPMI-10.
One hundred microliters of the effector cell suspension (8×10^5 cells) were added in triplicate to a 96-well, V-bottom microplate. RPMI-10 was added to the wells designated for spontaneous release and total release of the target cells. One hundred microliters of the target cell suspension (1×10^4 cells/well) were added to the wells for a total volume of 200 μl. The “total release” wells contained 15 μl of 9% Triton X-100, 85 μl of RPMI-10, and 100 μl of target cells.
The 96-well plate was centrifuged at 150×g for four minutes to gently bring the effector and target cells in contact. The plate was then incubated in a humidified 5% CO2 incubator. After four hours, the assay plate was again centrifuged for five minutes at 250×g. One hundred microliters of the supernatant was carefully removed from each well and placed in 12 mm×75 mm glass tubes for counting in a gamma counter. The percent release was calculated using the following formula: […]
Addition of PT stimulates both murine splenocytes and human PBLs to kill tumor cells through lysis. This effect is enhanced in the presence of IL-2. Experimentally, the YAC-1 tumor cell line is routinely used as a target cell for murine NK cells, and the K562 cell line is used as the target for human PBLs. The human prostate cell line DU145 was also included in the test. The data set out in Table 5 show an activation of both murine and human NK cells by PT and IL-2. For these experiments, the drugs, PT and IL-2, were included in the cell suspension and incubated for 48 hours. After this period, the splenocyte suspension was mixed with the YAC-1 target cells that had been loaded with ^51Cr for four hours. The human PBLs were added to a K562 or DU-145 cell suspension that had been similarly loaded. After a 30-minute incubation, the radioactivity in the supernatant fluid was counted as a measure of lysis of the target cells, which reflects NK activity. […]

DU-145 Target Cells = assay: Natural killer assay (^51Cr release), human PBLs against DU-145; format: cell-based; conditions: PT 0.05 μg/ml
Experimental: as §5, §6
On the day of harvest, 10^7 target cells were labeled with 150 μCi of ^51Cr (sodium chromate). Target cells used were YAC-I (murine Lymphoma) or K562 (human chronic myelogenous leukemia). […]
The 96-well plate was centrifuged at 150×g for four minutes to gently bring the effector and target cells in contact. […] The percent release was calculated using the following formula: […]
Addition of PT stimulates both murine splenocytes and human PBLs to kill tumor cells through lysis. […] After a 30-minute incubation, the radioactivity in the supernatant fluid was counted as a measure of lysis of the target cells, which reflects NK activity. […]

Pyrularia thionin (KSCCRNTWARNCYNVCRLPGTISREICAKKCDCKIISGTTCPSDYPK; ends and bridges not checked; also: labeled with 125I) [PT]
CPM of tritiated thymidine incorporated (Balb C splenocytes; 0.003 μg/ml, RPMI + IL-2 50 units/ml): 2,656 ± 110 CPM | CPM of tritiated thymidine incorporated (Balb C splenocytes; 0.003 μg/ml, RPMI + KLH 20 μg/ml): 3,957 ± 134 CPM | CPM of tritiated thymidine incorporated (Balb C splenocytes; 0.003 μg/ml, RPMI): 230 ± 6 CPM | Cpm, standard mitogen assay (Balb C splenocytes; 0.01 μg/ml PT, GM-CSF (5 ng/ml)): 1,767 Cpm | Cpm, standard mitogen assay (Balb C splenocytes; 0.01 μg/ml PT, GM-CSF (20 ng/ml)): 1,254 Cpm | Cpm, standard mitogen assay (Balb C splenocytes; 0.01 μg/ml PT, no GM-CSF, BALB C spleen cells): 287 Cpm | CPM of tritiated thymidine incorporated (Balb C splenocytes; 0.01 μg/ml, KLH 20 μg/ml): 3,737 ± 134 CPM | CPM of tritiated thymidine incorporated (Balb C splenocytes; 0.03 μg/ml, RPMI + IL-2 50 units/ml): 3,017 ± 107 CPM | CPM of tritiated thymidine incorporated (Balb C splenocytes; 0.03 μg/ml, RPMI + KLH 20 μg/ml): 4,162 ± 200 CPM | CPM of tritiated thymidine incorporated (Balb C splenocytes; 0.03 μg/ml, RPMI): 269 ± 57 CPM | Cpm, standard mitogen assay (Balb C splenocytes; 0.1 μg/ml PT, GM-CSF (20 ng/ml)): 1,549 Cpm | CPM of tritiated thymidine incorporated (Balb C splenocytes; 0.1 μg/ml, RPMI + IL-2 50 units/ml): 2,910 ± 351 CPM | CPM of tritiated thymidine incorporated (Balb C splenocytes; 0.1 μg/ml, RPMI + KLH 20 μg/ml): 4,254 ± 140 CPM and 4,284 ± 140 CPM | CPM of tritiated thymidine incorporated (Balb C splenocytes; 0.1 μg/ml, RPMI): 268 ± 74 CPM | CPM of tritiated thymidine incorporated (Balb C splenocytes; 0.3 μg/ml, RPMI + IL-2 50 units/ml): 2,395 ± 103 CPM | CPM of tritiated thymidine incorporated (Balb C splenocytes; 0.3 μg/ml, RPMI + KLH 20 μg/ml): 3,985 ± 101 CPM and 3,980 ± 101 CPM | CPM of tritiated thymidine incorporated (Balb C splenocytes; 0.3 μg/ml, RPMI): 142 ± 10 CPM and 147 ± 10 CPM | CPM of tritiated thymidine incorporated (Balb C splenocytes; 1.0 μg/ml, RPMI + IL-2 50 units/ml): 951 ± 122 CPM | CPM of tritiated thymidine incorporated (Balb C splenocytes; 1.0 μg/ml, RPMI + KLH 20 μg/ml): 1,742 ± 154 CPM and 1,747 ± 154 CPM | CPM of tritiated thymidine incorporated (Balb C splenocytes; 1.0 μg/ml, RPMI): 107 ± 25 CPM | CPM of tritiated thymidine incorporated (non-adherent human PBLs; RPMI): 724 ± 212 CPM | CPM of tritiated thymidine incorporated (non-adherent human PBLs; RPMI + IL-2 50 units/ml): 2,584 ± 527 CPM | % Cell Lysis (YAC-1 target cells; 0.01 μg/ml): −0.9 ± 0.5% | % Cell Lysis (YAC-1 target cells; 0.03 μg/ml): 2.1 ± 0.2% | % Cell Lysis (YAC-1 target cells; 0.1 μg/ml): 1.8 ± 0.4% | % Cytotoxicity (YAC-1 target cells; Swiss Webster murine splenocytes, YAC-1 targets, 48 hours with drugs, PT 0.01 μg/ml, IL-2 50 units/ml when present, effector to target ratio 80): 3.4 ± 0.9% | % Cytotoxicity (DU-145 Target Cells): 11.5 ± 1.1% | immunogenicity (Immunogenicity of PT): not immunogenic
